Legend:
[1] = tested on: FS (dFMR1-3+frame shifted rescue fragment) flies; assay: Conditioned courtship: short-term memory at 60 minutes, virgin female target, FS flies; format: in vivo, Drosophila melanogaster; conditions: for short-term memory at 60 minutes after training: adulthood alone or both; for short term memory: LY341495 (400 nM), MPEP (20 μg/ml); for short-term memory: concentration not given
Method: (§1) Short-term memory. The model was further extended to encompass short-term memory at 60 minutes after training. After the one hour training session with a previously mated female, the female is removed and the male is placed in a holding chamber for 60 minutes, then subsequently placed in a testing chamber with a virgin female target to assess short-term memory (FIG. 4C). […] CT-CT FS flies court just as vigorously at 60 minutes after training as naive CT-CT FS flies. […] The FS groups that were treated with MPEP in development alone, adulthood alone or in both development and adulthood display experience dependent reduction of courtship activity at 60 minutes after training when compared to group matched naives M-M FS, p<0.0001, CT-M FS, p<0.0001 and M-CT FS, p<0.0001. […] Additionally, flies were tested for ability to discriminate between virgin and previously mated females (FIG. 4D).
(§2) In order to examine short-term memory at 60 minutes after training, after the one hour training session with a previously mated female, the female is removed and the male is placed in a holding chamber for 60 minutes, then subsequently placed in a testing chamber with a virgin female (FIG. 9B). […] CT-CT FS flies court just as vigorously at 60 minutes after training as naive CT-CT FS flies. […] The FS groups that were treated with MPEP in development alone, adulthood alone or in both development and adulthood display experience dependent reduction of courtship activity at 60 minutes after training when compared to group matched naives M-M FS.

[2] = tested on: FS (dFMR1-3+frame shifted rescue fragment) flies; assay: Conditioned courtship: immediate recall (0 minute memory), FS flies; format: in vivo, Drosophila melanogaster; conditions: adulthood alone or both
Method: To assess immediate recall (0 minute memory), after the one hour training session with a previously mated female, the male was placed with a virgin target female for a ten-minute interval. This CI was then compared to the courtship level of naive males that had been placed in the training chamber for one hour with no female, before introducing them to a virgin target female for a ten-minute interval. In FIG. 1B the w1118 and Rescue lines show depression of courtship activity after training compared to naive trained males (p<0.005). However, dFMR1-3 and FS mutant lines court just as vigorously after training with a previously mated female as naive trained males, therefore these flies display no experience dependent behavioral plasticity at the time point of immediate recall. This is in spite of the fact that they court to similar levels as w1118 and Rescue lines during the training period. This implicates a deficit in synaptic plasticity for the two mutant lines at immediate recall (0 minute memory). This robust deficit in behavioral plasticity is a critical extension of the previous models of Fragile X syndrome in model organisms, since this has been completely missing in Drosophila models and is subtle in murine models, and particularly since this may be one of the most devastating aspects of the human disease.
Immediate recall. […]

[3] = tested on: Rescue (dFMR1-3+wild type rescue fragment) flies; assay: Conditioned courtship: short-term memory at 60 minutes, virgin female target, Rescue flies; format: in vivo, Drosophila melanogaster; conditions: for short-term memory at 60 minutes after training: adulthood or both; for short term memory: MPEP (20 μg/ml), NaCl (5 and 50 mM), LY341495 (400 nM)
Method: as §1, §2

[4] = tested on: wild type human and Drosophila tau expressing flies; assay: Short term memory in tau over expressing Drosophila Alzheimer's model; format: in vivo; conditions: for age dependent short term memory deficit: at 30 and 40 days
Text: Two Drosophila Alzheimer's models are particularly useful. One uses over expression of tau (either human wild type or Drosophila wild type with a myc tag) driven in the mushroom bodies. Flies overexpressing tau have normal memory at 5 days of age (young adults) but an age dependent impairment of short-term and long term memory by 26 days of age.

[5] = tested on: Rescue (dFMR1-3+wild type rescue fragment) flies; assay: Discrimination between virgin and previously mated females, Rescue flies; format: in vivo, Drosophila melanogaster
Method: as §1
Flies were also tested for ability to discriminate between virgin and previously mated females in FIG. 9C.

[6] = tested on: Drosophila expressing mutant huntington protein in the MBs; assay: Naive courtship and short-term memory in Drosophila expressing mutant huntington in the MBs; format: in vivo; conditions: 5 day old flies; p<0.05
Text: Both HDAC inhibition and CBP overexpression should in theory promote an increase CREB mediated gene transcription. […] Since we knew that we could use a PDE-4 inhibitor or mGluR antagonists or lithium to increase cAMP levels thereby promoting CREB mediated transcription, we decided to see if these compounds could restore the memory deficit in Drosophila expressing mutant huntington in the MBs.

[7] = 20-day-old, MPEP in development alone
[8] = 5 day old, MPEP 200 μg/ml in development alone, p<0.0001

| Structure (SMILES) | short-term memory at 60 minutes after training [1, 7] | short term memory ([1]; 5 day old) | short-term memory at 60 minutes after training [1, 8] | immediate recall [2, 7] | immediate recall (courtship immediately after training vs naive) [2, 8] | short-term memory at 60 minutes after training ([3]; 20-day-old, MPEP in development) | short-term memory at 60 minutes after training ([3]; 5 day old, MPEP 200 μg/ml in development) | short term memory ([3]; 5 day old) | age dependent short term memory deficit [4] | time courting virgin female compared to previously mated female (discrimination) ([5]; 20-day-old, MPEP 200 μg/ml in development and adulthood (M-M)) | ability to discriminate between virgin and previously mated females ([5]; 5 day old, MPEP 200 μg/ml in adulthood only (CT-M)) | short-term memory ([1]; 20-day-old) | short term memory ([4]; treatment from day 30 to day 39, at 40 days of age) | short-term memory [6] |
| --- | --- | --- | --- | --- | --- | --- | --- | --- | --- | --- | --- | --- | --- | --- |
| Cc1cccc(C#Cc2ccccc2)n1 [MPEP, 2-methyl-6-(phenylethynyl)pyridine] | short-term memory is also rescued | restored short-term memory | short-term memory is also rescued | sufficient to restore synaptic plasticity in FS flies | sufficient to rescue synaptic plasticity in FS flies | does not adversely affect short-term memory | does not adversely affect short-term memory | did not affect short term memory | can rescue the age dependent short term memory deficit | spent significantly more time courting virgin female targets | spend similar amounts of time courting previously mated female targets and virgin female targets | – | – | – |
| CC(N)(C(=O)O)c1ccc(-c2nnn[nH]2)cc1 (racemic) [MTPG, (RS)-α-methyl-4-tetrazolylphenylglycine] | – | – | – | – | – | – | – | – | – | – | – | rescue short-term memory | – | – |
| N[C@](CC1c2ccccc2Oc2ccccc21)(C(=O)O)[C@H]1C[C@@H]1C(=O)O [LY341495, (2S)-2-amino-2-[(1S,2S)-2-carboxycycloprop-1-yl]-3-(xanth-9-yl) propionic acid] | – | restored short-term memory | – | – | – | – | – | did not affect short term memory | can rescue the age dependent short term memory deficit | – | – | rescue short-term memory | can restore short term memory | restored short-term memory |
